PubChem BioAssay (NCI)
Where “and” joins values, the source holds several entries; their conditions need not be identical. Equal values may be shown once.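 Step 1: Grow cells in 96-well plates. Step 2: Expose to compound for 48 hours at 5 concentrations. Step 3: Interpolate endpoints linearly; if unreached, use highest concentration. Here, GI50 denotes the concentration required for 50% inhibition of growth. Definition used: TGI = concentration required for complete inhibition of growth.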

Tests used:
Experiment in all cases: growth of human tumour cells (NCI), 48 h
[1] = system: SNB-75 CNS
[2] = system: M14 melanoma
[3] = system: RXF 393 renal
[4] = system: UACC-257 melanoma
[5] = system: NCI-H522 lung
[6] = system: SK-MEL-2 melanoma
[7] = system: COLO 205 colon
[8] = system: SK-MEL-5 melanoma
[9] = system: SNB-19 CNS
[10] = system: HL-60(TB) leukemia

| SMILES | TGI [1] | TGI [2] [µM] | TGI [3] | TGI [4] | TGI [5] [µM] | TGI [6] [µM] | TGI [7] | TGI [8] | TGI [9] [µM] | GI50 [2] [µM] | GI50 [10] [µM] | TGI [10] | GI50 [3] [µM] | GI50 [4] | GI50 [5] [µM] | GI50 [6] [µM] | GI50 [7] [µM] | GI50 [8] | GI50 [9] [µM] | GI50 [1] [µM] |
| --- | --- | --- | --- | --- | --- | --- | --- | --- | --- | --- | --- | --- | --- | --- | --- | --- | --- | --- | --- | --- |
| Cn1cc(C2(C)CC(C)(C)c3c2n(C)c2ccccc32)c2ccccc21 (stereo not given) | > 100 µM | > 100 | > 100 µM | > 100 µM | > 100 | > 100 | > 100 µM | > 100 µM | > 100 |  |  |  |  |  |  |  |  |  |  |  |
| O=S(=O)(c1ccc(NC(=S)NC23CC4CC(CC(C4)C2)C3)cc1)N1CCCCC1 |  | 22.7 | 6.6 µM | 6.8 µM | 6.62 | 7.39 | 3.22 µM | 3.31 µM | > 100 | 3.36 | 2.65 | 6.24 µM | 2.37 | 2.49 µM | 2.7 | 3.29 | 1.82 | 1.75 µM | 4.02 |  |
| CCOC(=O)N[C@@H]1C(CC(=O)OC)O[C@H]2OC(C)(C)O[C@H]21 (stereo not given in full) | > 100 µM | > 100 | > 100 µM | > 100 µM |  | > 100 | > 100 µM | > 100 µM |  |  |  | > 100 µM |  |  |  |  |  |  |  |  |
| Cc1cc2ncnn2cc1Nc1ncc2c(n1)n(C1CCOCC1)c(=O)n2C | 6.96 µM | > 100 | 29.9 µM | 72.5 µM | > 100 | 71.5 | > 100 µM | 29.2 µM |  | 11.2 | 23.3 | > 100 µM | 3.73 | 7.52 µM | 3.74 | 12.2 | 4.93 | 14 µM |  | 1.12 |
| COc1ccc(-c2nc3ccccn3c2/C=C/C(=O)c2cc(OC)c(OC)c(OC)c2)cc1OC | > 100 µM | 45.1 |  | 15.4 µM | 35.5 | 7.19 | > 100 µM | 2.92 µM | > 100 | 4.48 | 2.53 | 6.12 µM |  | 3.24 µM | 2.74 | 2.37 | 3.92 | 1.5 µM | 4.91 | 3.92 |
| O=C(Nc1ccccc1-c1nc2ccccc2[nH]c1=O)c1ccccc1 | 30.8 µM | > 100 | 43.6 µM | > 100 µM | 46.1 | 56 | > 100 µM | > 100 µM | 60.1 |  |  |  |  |  |  |  |  |  |  |  |
| O=C(c1cccc2ccccc12)N1CCC(C2CCN(C(=O)c3cccc4ccccc34)CC2)CC1 | 65.7 µM | > 100 | > 100 µM | > 100 µM | > 100 | > 100 | > 100 µM | > 100 µM |  |  |  | > 100 µM |  |  |  |  |  |  |  |  |
| COc1cc(Cc2nccc3cc(OC)c(OC)cc23)c(C(C)=O)cc1OC | 300 µM and > 750 µM | > 750 | 300 µM and > 750 µM | 116 µM and 144 µM | 300 | 300 | 40.1 µM and 300 µM | 139 µM and 486 µM |  |  | > 750 | 130 µM and > 750 µM | > 750 | 55 µM and 49 µM and 35.4 µM | 21.5 |  | 5.36 | 25.6 µM and 130 µM |  | 29.4 |
